# Assay results from ChEMBL document CHEMBL1201862, “PubChem BioAssay data set” (2004).
#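 Results reflect a 48-hour exposure of cells in 96-well plates to compound at five concentrations. GI50 = concentration required for 50% inhibition of growth.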 Calls of active or inactive are those of the source. No stated cut-off is given here; in the data, active = GI50 up to about 1.1 µM and inactive = higher.
# Experiments:
# Experiment in all cases: growth of human tumour cells (NCI), 48 h
# HOP-18 = test system: HOP-18
# DMS-114 = test system: DMS-114
# XF498 = test system: XF498
# DLD-1 = test system: DLD-1
# KM-20L2 = test system: KM-20L2
# SNB-78 = test system: SNB-78
# M19-MEL = test system: M19-MEL
# DMS-273 = test system: DMS-273
# RXF 631 = test system: RXF 631
Structure (SMILES),GI50 (HOP-18),GI50 (DMS-114),GI50 (XF498),GI50 (DLD-1),GI50 (KM-20L2),GI50 (SNB-78),GI50 (M19-MEL),GI50 (DMS-273),GI50 (RXF 631)
CCC(C)C(=O)O[C@H]1C(=O)O[C@@H]2C[C@H]3C(C)=CC(=O)[C@@H](O)[C@]3(C)[C@H]3[C@@H](O)[C@H](O)[C@@]4(C)OC[C@]32[C@@H]14 (stereo not given in full),0.158 µM (active),0.0152 µM (active),0.0208 µM (active),0.0293 µM (active),0.0468 µM (active),0.0323 µM (active),0.0269 µM (active),0.019 µM (active),–
N#CC(C(=O)/C(=N/N)C(C#N)c1ccc(Cl)cc1)c1ccc(Cl)cc1 (stereo not given),> 100 µM (inactive),> 100 µM (inactive),57.3 µM (inactive),> 100 µM (inactive),> 100 µM (inactive),> 100 µM (inactive),> 100 µM (inactive),–,> 100 µM (inactive)
Cc1nc2sccn2c1C(=O)NNC(N)=S,> 100 µM (inactive),> 100 µM (inactive),–,> 100 µM (inactive),> 100 µM (inactive),–,–,> 100 µM (inactive),–
CCc1cc(CCC(=O)Nc2ccccc2[N+](=O)[O-])nc(S)n1,> 100 µM (inactive),> 100 µM (inactive),–,> 100 µM (inactive),> 100 µM (inactive),> 100 µM (inactive),> 100 µM (inactive),–,> 100 µM (inactive)
CCOc1ncnc2ccc(Cl)c(I)c12,–,45.1 µM (inactive),45.4 µM (inactive),99.1 µM (inactive),> 100 µM (inactive),–,> 100 µM (inactive),> 100 µM (inactive),–
Clc1ccccc1C1SCc2nc3ccccc3n21 (stereo not given),< 0.01 µM (active),–,30.3 µM (inactive),33.2 µM (inactive),–,17.1 µM (inactive),33 µM (inactive),–,–
C=C(COC(C)=O)CC(/C=C(\C)CCC=C(C)C)OC(C)=O (stereo not given),–,> 100 µM (inactive),47.6 µM (inactive),> 100 µM (inactive),> 100 µM (inactive),> 100 µM (inactive),> 100 µM (inactive),> 100 µM (inactive),–
CC(C)=CC(=O)C1c2cccc(O)c2C(=O)c2c(O)cc(C)cc21 (stereo not given),2.15 µM (inactive),1.79 µM (inactive),1.54 µM (inactive),2.87 µM (inactive),4.86 µM (inactive),2.86 µM (inactive),1.81 µM (inactive),3.48 µM (inactive),–
CCOC(=N)CC(=O)c1ccccc1,> 100 µM (inactive),> 100 µM (inactive),> 100 µM (inactive),> 100 µM (inactive),> 100 µM (inactive),> 100 µM (inactive),> 100 µM (inactive),> 100 µM (inactive),–
C=C1C(=O)OC2/C=C(\CO)C(OC(C)=O)CC(O)/C(C)=C/C(OC(=O)C(C)CC)C12 (stereo not given),23.8 µM (inactive),23.6 µM (inactive),15.8 µM (inactive),12.9 µM (inactive),22.4 µM (inactive),16.3 µM (inactive),16.8 µM (inactive),19.1 µM (inactive),33.5 µM (inactive)
COC(=O)C(C(=O)C(=O)NC1=C(Cl)C(=O)c2ccccc2C1=O)c1csc(-n2nc(-c3ccccc3)cc2-c2ccccc2)n1 (stereo not given),13.1 µM (inactive),10.2 µM (inactive),> 100 µM (inactive),> 100 µM (inactive),> 100 µM (inactive),> 100 µM (inactive),> 100 µM (inactive),> 100 µM (inactive),> 100 µM (inactive)
CCCCCCC(C)OC(=O)/C=C(\CC(=O)OC(C)CCCCCC)C(=O)OC(C)CCCCCC (stereo not given),–,> 100 µM (inactive),–,> 100 µM (inactive),> 100 µM (inactive),> 100 µM (inactive),> 100 µM (inactive),> 100 µM (inactive),–
O=C(CCn1[nH]c(=O)c(Cl)c(Cl)c1=O)NO,> 100 µM (inactive),> 100 µM (inactive),> 100 µM (inactive),> 100 µM (inactive),> 100 µM (inactive),–,> 100 µM (inactive),> 100 µM (inactive),–
COC12OCCN(CCO)C1=CC(=O)C1(C)N=NC(C)C12 (stereo not given),> 100 µM (inactive),> 100 µM (inactive),–,> 100 µM (inactive),–,> 100 µM (inactive),> 100 µM (inactive),> 100 µM (inactive),> 100 µM (inactive)
COc1ccc2nc(NC(=O)C(=O)CC(=O)c3ccc(Cl)cc3)sc2c1,78.2 µM (inactive),> 100 µM (inactive),46.9 µM (inactive),> 100 µM (inactive),71.3 µM (inactive),> 100 µM (inactive),> 100 µM (inactive),> 100 µM (inactive),–
O=C(NC(=O)c1ccccc1[N+](=O)[O-])Nc1ccc(Oc2ncc(Cl)cn2)c(C(F)(F)F)c1,53.1 µM (inactive),< 0.01 µM (active),0.0103 µM (active),< 0.0132 µM (active),< 0.0125 µM (active),< 0.01 µM (active),< 0.0171 µM (active),< 0.01 µM (active),–
CSCC1CC(c2ccc(Cl)cc2)=NO1 (stereo not given),> 100 µM (inactive),> 100 µM (inactive),–,> 100 µM (inactive),> 100 µM (inactive),> 100 µM (inactive),> 100 µM (inactive),> 100 µM (inactive),> 100 µM (inactive)
CCCCCCCCCCCCC(Br)C(=O)NCC(N)=O (stereo not given),14.3 µM (inactive),3.61 µM (inactive),1.37 µM (inactive),12.9 µM (inactive),20.4 µM (inactive),12.4 µM (inactive),15 µM (inactive),11.7 µM (inactive),3.63 µM (inactive)
N#Cc1ccc(Oc2ccccc2)cc1C#N,> 100 µM (inactive),23.7 µM (inactive),> 100 µM (inactive),65.2 µM (inactive),> 100 µM (inactive),54.6 µM (inactive),54.2 µM (inactive),17.4 µM (inactive),–
O=c1oc2c3ccc4ccccc4c3n(CCN3CCOCC3)c2c2ccccc12,> 100 µM (inactive),> 100 µM (inactive),–,> 100 µM (inactive),> 100 µM (inactive),–,3.76 µM (inactive),–,–
COc1ccc(/N=N/c2c(-c3ccccc3)nn(C(=O)CC(=O)Nc3ccccc3Cl)c2-c2ccccc2)cc1,> 100 µM (inactive),25.9 µM (inactive),–,> 100 µM (inactive),> 100 µM (inactive),> 100 µM (inactive),> 100 µM (inactive),> 100 µM (inactive),> 100 µM (inactive)
O=C1Nc2nc3ccccc3n2N=C2CCCC12 (stereo not given),–,> 100 µM (inactive),> 100 µM (inactive),> 100 µM (inactive),> 100 µM (inactive),> 100 µM (inactive),> 100 µM (inactive),> 100 µM (inactive),> 100 µM (inactive)
COc1ccc(NC(=O)c2cc(OC)cc(OC)c2)cc1,> 46.7 µM (inactive),7.29 µM (inactive),> 70.3 µM (inactive),17.1 µM (inactive),4.81 µM (inactive),26 µM (inactive),–,9.02 µM (inactive),–
"Cc1cc(C(=C2C=CC(=N)C=C2)c2ccc(N)cc2)ccc1N [FUCHSIN, BASIC]",–,1.31 µM (inactive),2.77 µM (inactive),3.45 µM (inactive),3.77 µM (inactive),2.76 µM (inactive),4.21 µM (inactive),–,–
